Measured values as given in US8440724B2, “Inhibiting neurotransmitter reuptake” (Mayo Foundation for Medical Education and Research, priority 2008, dated 2013).

What was measured:
[1] = target: human norepinephrine transporter (Homo sapiens, UniProt P23975); experiment: Inhibition of [3H]NE transport into HEK-293 cells expressing the human transporter
[2] = target: T1, rat dopamine transporter, synaptosomal preparations (Rattus norvegicus, UniProt P23977); experiment: Inhibition of [3H]DA reuptake in rat brain synaptosomes (striatum); type: biochemical
T1 construct: and striatal tissues for transport of dopamine; from tissue; host or cells: rat striatum synaptosomes (male Sprague-Dawley)
T1 sequence (P23977 whole entry): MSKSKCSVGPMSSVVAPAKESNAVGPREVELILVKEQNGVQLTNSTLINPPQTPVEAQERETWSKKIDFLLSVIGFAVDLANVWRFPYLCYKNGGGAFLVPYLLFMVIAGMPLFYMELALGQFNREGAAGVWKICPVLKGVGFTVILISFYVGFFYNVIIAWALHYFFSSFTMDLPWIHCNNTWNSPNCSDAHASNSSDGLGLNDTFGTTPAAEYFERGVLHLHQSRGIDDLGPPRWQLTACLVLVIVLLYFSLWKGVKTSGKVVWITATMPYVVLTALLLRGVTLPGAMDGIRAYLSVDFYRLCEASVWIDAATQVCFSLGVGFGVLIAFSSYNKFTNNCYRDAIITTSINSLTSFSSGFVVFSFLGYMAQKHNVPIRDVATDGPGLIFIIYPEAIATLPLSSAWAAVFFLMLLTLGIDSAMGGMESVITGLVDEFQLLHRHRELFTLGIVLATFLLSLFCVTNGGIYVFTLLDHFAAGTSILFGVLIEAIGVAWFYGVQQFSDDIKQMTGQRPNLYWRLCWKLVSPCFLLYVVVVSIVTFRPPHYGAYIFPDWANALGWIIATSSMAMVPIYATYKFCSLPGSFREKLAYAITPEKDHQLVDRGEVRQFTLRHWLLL
Experimental: (§1) The dissected tissues were separately homogenized in 20 volumes (cortical) or 40 volumes (striatal) of ice-cold, oxygenated HEPES buffer 0.32 M sucrose containing 11 mM glucose (pH 7.4) in a glass Potter-Elvehjem homogenizer with Teflon® pestle (8 strokes, 900 rpm). The homogenates were centrifuged at 1,000×g for 10 minutes. The resulting supernatant was decanted and further centrifuged at 20,000×g for 20 minutes at 4° C. […] The synaptosomal protein concentration was determined by using the BCA assay (Pierce Biotechnology Inc, Rockford, Ill.), according to the manufacturer's instructions. Synaptosomal protein (1.0-2.5 mg) was suspended in 1 mL oxygenated incubation buffer as defined above. Test amine compound was pre-incubated with the synaptosomal preparation for 30 minutes at 37° C. in a shaking water bath (80 oscillations/minute).

[3] = tested on: Male Sprague-Dawley rats; experiment: Forced swim test in rats; type: in vivo, rat; conditions: 5 mg/kg IP
Experimental: When rats are placed in a cylinder of water from which they cannot escape, they will remain immobile in the water for the majority of the test.
Water was changed between trials, and the procedure involved a pretest and a 5-minute test separated by 24 hours. During the pretest, rats (adapted to the experimental room for no less than one hour) were placed in the cylinder for 15 minutes. Following this initial exposure, the rats were dried with towels and transferred to a “drying cage” situated under a warming lamp. […] The following day, rats were transferred to the experimental room and acclimated for at least one hour.
The rat was considered immobile when floating motionless or making only those movements necessary to keep its head above the surface of the water. Scores for each behavior (swimming or immobility) were expressed as total counts per 5-minute session. Statistical analysis was performed using ANOVA followed by the Tukey test for post-hoc comparisons.

[4] = target: T2, rat norepinephrine transport, synaptosomal preparations (Rattus norvegicus, UniProt Q63380); experiment: Inhibition of [3H]NE reuptake in rat brain synaptosomes (occipital cortex); type: biochemical
T2 construct: from tissue; host or cells: rat occipital cortex synaptosomes (male Sprague-Dawley)
T2 sequence (Q63380 1-617): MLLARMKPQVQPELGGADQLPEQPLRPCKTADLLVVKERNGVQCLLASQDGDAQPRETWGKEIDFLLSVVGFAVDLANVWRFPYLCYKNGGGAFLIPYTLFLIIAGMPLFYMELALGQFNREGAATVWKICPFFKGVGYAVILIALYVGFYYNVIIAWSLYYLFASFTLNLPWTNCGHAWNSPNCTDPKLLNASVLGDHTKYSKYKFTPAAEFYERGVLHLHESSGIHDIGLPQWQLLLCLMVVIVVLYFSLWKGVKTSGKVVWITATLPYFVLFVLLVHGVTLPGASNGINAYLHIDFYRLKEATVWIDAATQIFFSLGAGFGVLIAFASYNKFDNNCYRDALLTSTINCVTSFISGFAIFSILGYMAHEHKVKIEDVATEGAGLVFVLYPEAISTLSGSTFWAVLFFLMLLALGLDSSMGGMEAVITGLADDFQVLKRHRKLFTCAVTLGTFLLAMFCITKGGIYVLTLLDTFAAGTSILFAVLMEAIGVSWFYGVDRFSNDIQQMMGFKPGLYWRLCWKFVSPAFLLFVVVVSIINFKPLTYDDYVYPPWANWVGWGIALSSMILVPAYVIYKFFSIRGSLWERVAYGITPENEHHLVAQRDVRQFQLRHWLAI
Experimental: as §1

[5] = tested on: rat 5-HT, NE and DA transport, synaptosomal preparations; experiment: Rat brain synaptosomal transport: rank order of potency; type: biochemical; conditions: from Ki values; S = 5HT, N = NE, D = DA
Experimental: as §1

[6] = target: human serotonin transporter (Homo sapiens, UniProt P31645); experiment: Inhibition of [3H]5-HT transport into HEK-293 cells expressing the human transporter
human serotonin transporter, sequence (P31645 whole entry): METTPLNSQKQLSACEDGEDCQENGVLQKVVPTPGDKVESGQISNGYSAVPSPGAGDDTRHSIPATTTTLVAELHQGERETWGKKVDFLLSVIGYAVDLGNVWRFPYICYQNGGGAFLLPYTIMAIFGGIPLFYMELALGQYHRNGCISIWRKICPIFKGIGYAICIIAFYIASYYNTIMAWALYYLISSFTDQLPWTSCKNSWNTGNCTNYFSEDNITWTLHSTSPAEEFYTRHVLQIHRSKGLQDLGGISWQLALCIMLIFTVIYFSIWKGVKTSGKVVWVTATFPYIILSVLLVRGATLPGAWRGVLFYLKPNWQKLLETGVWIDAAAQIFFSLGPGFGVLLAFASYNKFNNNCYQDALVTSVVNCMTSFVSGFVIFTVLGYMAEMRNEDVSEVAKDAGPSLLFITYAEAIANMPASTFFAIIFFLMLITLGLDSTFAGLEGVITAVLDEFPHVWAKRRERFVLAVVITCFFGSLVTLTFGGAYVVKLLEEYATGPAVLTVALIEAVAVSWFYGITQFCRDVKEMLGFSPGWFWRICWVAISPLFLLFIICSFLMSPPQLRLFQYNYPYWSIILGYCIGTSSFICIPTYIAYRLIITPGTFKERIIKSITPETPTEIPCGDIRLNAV

[7] = target: hERG (Homo sapiens, UniProt Q12809); experiment: hERG assay: block of rubidium ion (Rb+) efflux from cells expressing hERG
hERG, sequence (Q12809 whole entry): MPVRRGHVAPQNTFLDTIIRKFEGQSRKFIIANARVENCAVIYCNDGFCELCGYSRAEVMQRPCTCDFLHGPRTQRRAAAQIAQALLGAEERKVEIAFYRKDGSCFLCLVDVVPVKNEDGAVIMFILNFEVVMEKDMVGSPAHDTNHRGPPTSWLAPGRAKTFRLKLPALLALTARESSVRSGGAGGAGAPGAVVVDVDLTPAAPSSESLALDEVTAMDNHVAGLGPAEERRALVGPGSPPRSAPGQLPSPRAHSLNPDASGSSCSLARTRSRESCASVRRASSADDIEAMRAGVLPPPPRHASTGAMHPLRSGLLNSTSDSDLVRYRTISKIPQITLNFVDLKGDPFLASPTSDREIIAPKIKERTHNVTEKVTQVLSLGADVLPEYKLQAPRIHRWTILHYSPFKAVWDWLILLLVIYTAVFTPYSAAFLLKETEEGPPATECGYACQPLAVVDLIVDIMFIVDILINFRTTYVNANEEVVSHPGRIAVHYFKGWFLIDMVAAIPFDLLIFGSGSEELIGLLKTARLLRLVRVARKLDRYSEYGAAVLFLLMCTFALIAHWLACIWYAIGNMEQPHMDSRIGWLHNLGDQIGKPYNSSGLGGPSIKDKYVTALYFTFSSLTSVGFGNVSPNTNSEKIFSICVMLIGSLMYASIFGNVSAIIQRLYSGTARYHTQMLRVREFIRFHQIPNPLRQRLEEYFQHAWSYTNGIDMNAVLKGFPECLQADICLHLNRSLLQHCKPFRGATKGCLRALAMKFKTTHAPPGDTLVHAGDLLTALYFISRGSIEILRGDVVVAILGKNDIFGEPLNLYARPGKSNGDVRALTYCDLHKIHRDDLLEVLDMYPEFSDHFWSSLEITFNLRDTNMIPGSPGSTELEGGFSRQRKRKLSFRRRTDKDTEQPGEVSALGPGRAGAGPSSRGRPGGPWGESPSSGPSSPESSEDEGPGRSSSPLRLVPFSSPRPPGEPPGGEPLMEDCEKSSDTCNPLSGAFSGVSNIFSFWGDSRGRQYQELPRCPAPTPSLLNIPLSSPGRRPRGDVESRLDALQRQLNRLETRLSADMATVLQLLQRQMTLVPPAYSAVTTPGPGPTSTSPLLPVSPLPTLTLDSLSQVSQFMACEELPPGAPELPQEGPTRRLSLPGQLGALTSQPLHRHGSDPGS
Experimental: Human “ether-a-go-go” (hERG) is an ion channel. Blockade of this channel can be predictive of causing cardiac arrhythmias in humans. hERG assays were performed to measure the ability of a compound to block rubidium ion (Rb^+) efflux from cells expressing hERG. Cells were pre-loaded with Rb^+, incubated with test compound, and then exposed to a buffer that opens the channel and allows the efflux of ions. Compounds as powder were dissolved in 100% DMSO to prepare 100 mM stock solutions. […] The stocks were stored at 23° C.
The range of doses for the test compounds was 30 nM through 100,000 nM.

[8] = target: T3, rat serotonin transporter, synaptosomal preparations (Rattus norvegicus, UniProt P31652); experiment: Inhibition of [3H]5-HT reuptake in rat brain synaptosomes (frontal cortex); type: biochemical
T3 construct: from tissue; host or cells: rat frontal cortex synaptosomes (male Sprague-Dawley)
T3 sequence (P31652 whole entry): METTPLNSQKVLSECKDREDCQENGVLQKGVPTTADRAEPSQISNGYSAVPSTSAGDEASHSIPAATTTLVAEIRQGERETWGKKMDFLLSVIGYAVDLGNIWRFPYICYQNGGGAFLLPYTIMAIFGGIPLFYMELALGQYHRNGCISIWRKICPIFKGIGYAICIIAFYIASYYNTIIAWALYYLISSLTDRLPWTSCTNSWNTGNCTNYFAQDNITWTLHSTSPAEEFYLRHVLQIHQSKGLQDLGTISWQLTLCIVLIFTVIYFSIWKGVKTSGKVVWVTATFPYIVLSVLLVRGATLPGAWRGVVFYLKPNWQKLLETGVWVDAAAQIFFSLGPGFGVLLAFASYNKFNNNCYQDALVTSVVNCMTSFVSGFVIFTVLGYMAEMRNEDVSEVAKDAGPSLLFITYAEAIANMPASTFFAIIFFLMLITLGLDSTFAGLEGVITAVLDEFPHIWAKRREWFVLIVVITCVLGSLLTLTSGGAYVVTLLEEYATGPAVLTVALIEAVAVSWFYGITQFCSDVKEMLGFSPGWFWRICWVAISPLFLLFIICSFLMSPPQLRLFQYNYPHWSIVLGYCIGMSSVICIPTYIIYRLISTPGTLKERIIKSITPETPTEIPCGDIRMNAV
Experimental: as §1

[9] = tested on: hSERT, hNET, hDAT; experiment: Human transporter binding: rank order and range of potency over the three transporters; conditions: for Potency (rank-order of potency of binding; S = hSERT, N = hNET, D = hDAT): from KD values
From the text: The program was modified to calculate the Hill coefficient (nH). Data are presented as geometric mean±S.E.M. of at least three independent experiments. One-component models and two-component models were compared using the root mean square error of each fit and the F test.

[10] = target: T4, CYP2D6 (Homo sapiens, UniProt P10635); experiment: CYP2D6 inhibition, CYP2D6/AMMC kit (BD Biosciences), fluorescent substrate; type: in vitro ADME
T4 construct: purchased BD Biosciences 459200
T4 sequence (P10635 whole entry): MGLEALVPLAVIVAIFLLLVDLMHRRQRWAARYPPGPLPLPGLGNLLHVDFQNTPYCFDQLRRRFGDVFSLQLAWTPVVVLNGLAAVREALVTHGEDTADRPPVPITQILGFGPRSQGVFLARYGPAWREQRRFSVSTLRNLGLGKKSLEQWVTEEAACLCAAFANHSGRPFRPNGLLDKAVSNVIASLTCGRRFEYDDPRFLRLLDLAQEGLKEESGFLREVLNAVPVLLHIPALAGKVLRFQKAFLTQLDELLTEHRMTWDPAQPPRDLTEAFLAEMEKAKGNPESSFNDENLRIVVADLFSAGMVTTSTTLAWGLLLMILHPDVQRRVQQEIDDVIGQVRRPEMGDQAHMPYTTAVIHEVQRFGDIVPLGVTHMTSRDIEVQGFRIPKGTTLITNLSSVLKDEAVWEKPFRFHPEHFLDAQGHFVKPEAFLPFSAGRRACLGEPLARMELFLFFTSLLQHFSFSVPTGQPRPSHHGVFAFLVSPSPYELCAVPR
From the text: This kit includes the use of a fluorescent P450 substrate (AMMC or 3-[2-(N,N-diethyl-N-methylamino)ethyl]-7-methoxy-4-methylcoumarin) and recombinant human P450.

[11] = tested on: mice; experiment: Locomotor activity in motility chamber, mice; type: in vivo, mouse; conditions: 5 mg/kg IP, 10 minute intervals for 3 hours, FIG. 11

human norepinephrine transporter, sequence (P23975 whole entry): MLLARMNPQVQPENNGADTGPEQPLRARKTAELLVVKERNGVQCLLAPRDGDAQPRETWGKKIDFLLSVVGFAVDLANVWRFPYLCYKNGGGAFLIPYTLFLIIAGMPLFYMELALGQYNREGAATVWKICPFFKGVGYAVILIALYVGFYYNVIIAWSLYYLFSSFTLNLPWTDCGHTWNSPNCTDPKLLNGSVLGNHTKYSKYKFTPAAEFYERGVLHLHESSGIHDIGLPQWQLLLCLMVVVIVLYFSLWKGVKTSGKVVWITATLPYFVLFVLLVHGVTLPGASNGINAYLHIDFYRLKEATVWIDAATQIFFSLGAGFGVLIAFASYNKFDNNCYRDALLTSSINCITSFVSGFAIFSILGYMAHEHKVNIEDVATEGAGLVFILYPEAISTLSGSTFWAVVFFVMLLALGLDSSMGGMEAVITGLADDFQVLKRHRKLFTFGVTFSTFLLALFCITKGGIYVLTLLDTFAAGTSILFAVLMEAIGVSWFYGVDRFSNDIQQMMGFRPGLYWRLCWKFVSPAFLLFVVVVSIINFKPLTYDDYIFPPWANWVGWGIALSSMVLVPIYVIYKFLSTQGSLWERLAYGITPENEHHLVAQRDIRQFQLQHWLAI

| Compound | Ki [1] [nM] | Ki [2] [nM] | Immobility in forced swim test vs saline [3] | Swimming in forced swim test vs saline [3] | Antidepressant activity in forced swim test compared with imipramine (15 mg/kg IP) ([3]; FIG. 12A) | Ki [4] [nM] | Potency (rank order, transport into rat brain synaptosomal preparations) [5] | Ki [6] [nM] | IC50 [7] [nM] | Ki [8] [nM] | Potency (rank-order of potency of binding; S = hSERT, N = hNET, D = hDAT) [9] | Potency (rank-order of potency of binding; S = hSERT, N = hNET, D = hDAT) ([9]; listed as PRC200) | Potency Range (difference between most potent and least potent binding) ([9]; ratio of KD over hSERT, hNET, hDAT) [fold] | IC50 [10] [nM] | Effect on locomotor activity [11] |
| --- | --- | --- | --- | --- | --- | --- | --- | --- | --- | --- | --- | --- | --- | --- | --- |
| CNC[C@H](c1ccc2ccccc2c1)[C@H](O)c1ccccc1 [PRC200-SS, (1S,2S)-3-(methylamino)-2-(naphthalen-2-yl)-1-phenylpropan-1-ol, reference compound] | 6 ± 2 | 61 ± 4 | statistically (P<0.04) less immobility | statistically (P<0.04) more swimming behavior | antidepressant activity that was similar to that observed in rats treated with the positive control | 6 ± 2 | S > N > D | 2.8 ± 0.4 | 32600 | 2.12 ± 0.9 | N > S > D | N>S>D | 45 | 80 | – |
| C[C@H](N)Cc1ccccc1 [d-amphetamine, reference compound] | – | – | – | – | – | – | – | – | – | – | – | – | – | – | caused a significant effect on locomotor activity |
